Measurements from PMC11036874, “In vitro characterization of [^125I]HY-3-24, a selective ligand for the dopamine D3 receptor” (Frontiers in Neuroscience, 2024).
pKi: −log10 of the molar value.

Key:
sigma-1 = target: T1, sigma-1 (Cavia porcellus, UniProt Q60492); assay: Sigma-1 binding assay with [3H]-(+)-pentazocine; settings: guinea pig brain homogenates
T1 construct: from tissue; host or cells: guinea pig brain homogenates
Procedure: The preparation of protein homogenates and sigma binding assay were conducted as described previously ([Luedtke et al., 2000]). For sigma-1 binding assay, [^3H]-(+)-pentazocine (50 μL, ~50,000 cpm) and HY-3-24 (concentrations ranging from 10^−5 to 10^−11 M) were mixed, guinea pig brain homogenates (100 μg/100 μL) were added and the mixture was incubated at 5% CO2, 37°C for 90 min. The assay was terminated by adding cold buffer (10 mM Tris–HCl, 150 mM NaCl, pH 7.5), and the mixture was filtered htrough Whatman CF/C filters (Brandel Inc., Maryland, United States) which were soaked in 1% polyethyleneimine (PEI). The collected filter was washed three times using cold buffer; non-specific binding was determined in the presence of 10 μM of haloperidol. The collected filters were mixed with 3 mL of microscint™20 by and counted overnight (1 min/well) using a beta counter (MicroBeta^2®, PerkinElmer, United Kingdom). The data were analyzed using PRISM 9.

adrenergic beta2 = target: T2, adrenergic beta2 (Homo sapiens, UniProt P07550); assay: PDSP binding screen; settings: HCl salt
T2 construct: Psychoactive Drug Screening Program (PDSP)
Source text: (§1) The binding of HY-3-24 to various GPCRs was investigated through comprehensive screening by Psychoactive Drug Screening Program (PDSP) (Supplementary Table S1) ([Besnard et al., 2012]). These GPCRs included major neurotransmitter receptors family (e.g., dopamine, serotonin, histamine, opioid, muscarinic, adrenergic, sigma receptors, ɤ-amino-butyric acid type A, and benzodiazepine receptors) and transporters (e.g., dopamine, norepinephrine, and serotonin transporter).

serotonin 5-HT6 = target: T3, serotonin 5-HT6 (Homo sapiens, UniProt P50406); assay: PDSP binding screen; settings: HCl salt
T3 construct: Psychoactive Drug Screening Program (PDSP)
Source text: as §1

serotonin 5-HT2A = serotonin 5-HT2A (Homo sapiens, UniProt P28223); assay: PDSP binding screen; settings: HCl salt
Source text: as §1

opioid KOR = target: T4, opioid KOR (Homo sapiens, UniProt P41145); assay: PDSP binding screen; settings: HCl salt
T4 construct: Psychoactive Drug Screening Program (PDSP)
Source text: as §1

adrenergic alpha2C = target: T5, adrenergic alpha2C (Homo sapiens, UniProt P18825); assay: PDSP binding screen; settings: HCl salt
T5 construct: Psychoactive Drug Screening Program (PDSP)
Source text: as §1

adrenergic alpha2B = target: T6, adrenergic alpha2B (Homo sapiens, UniProt P18089); assay: PDSP binding screen; settings: HCl salt
T6 construct: Psychoactive Drug Screening Program (PDSP)
Source text: as §1

adrenergic alpha2A = target: T7, adrenergic alpha2A (Homo sapiens, UniProt P08913); assay: PDSP binding screen; settings: HCl salt
T7 construct: Psychoactive Drug Screening Program (PDSP)
Source text: as §1

sigma2 = target: T8, sigma2 (Homo sapiens, UniProt Q5BJF2); assay: PDSP binding screen; settings: HCl salt
T8 construct: Psychoactive Drug Screening Program (PDSP)
Source text: as §1

serotonin transporter = target: T9, serotonin transporter (Homo sapiens, UniProt P31645); assay: PDSP binding screen; settings: HCl salt
T9 construct: Psychoactive Drug Screening Program (PDSP)
Source text: as §1

Muscarinic M4 = target: T10, Muscarinic M4 (Homo sapiens, UniProt P08173); assay: PDSP binding screen; settings: HCl salt
T10 construct: Psychoactive Drug Screening Program (PDSP)
Source text: as §1

dopamine D2 = dopamine D2 (Homo sapiens, UniProt P14416); assay: PDSP binding screen; settings: HCl salt, [3H]N-methylspiperone
Source text: as §1

dopamine D1 = dopamine D1 (Homo sapiens, UniProt P21728); assay: PDSP binding screen; settings: HCl salt
Source text: as §1

serotonin 5-HT3 = serotonin 5-HT3 (Homo sapiens, UniProt P46098); assay: PDSP binding screen; settings: HCl salt
Source text: as §1

dopamine D4 = dopamine D4 (Homo sapiens, UniProt P21917); assay: PDSP binding screen; settings: HCl salt
Source text: as §1

serotonin 5-HT1D = serotonin 5-HT1D (Homo sapiens, UniProt P28221); assay: PDSP binding screen; settings: HCl salt
Source text: as §1

serotonin 5-HT2C = serotonin 5-HT2C (Homo sapiens, UniProt P28335); assay: PDSP binding screen; settings: HCl salt
Source text: as §1

Muscarinic M2 = target: T11, Muscarinic M2 (Homo sapiens, UniProt P08172); assay: PDSP binding screen; settings: HCl salt
T11 construct: Psychoactive Drug Screening Program (PDSP)
Source text: as §1

sigma1 = target: T12, sigma1 (Homo sapiens, UniProt Q99720); assay: PDSP binding screen; settings: HCl salt
T12 construct: Psychoactive Drug Screening Program (PDSP)
Source text: as §1

T1 sequence (Q60492 whole entry): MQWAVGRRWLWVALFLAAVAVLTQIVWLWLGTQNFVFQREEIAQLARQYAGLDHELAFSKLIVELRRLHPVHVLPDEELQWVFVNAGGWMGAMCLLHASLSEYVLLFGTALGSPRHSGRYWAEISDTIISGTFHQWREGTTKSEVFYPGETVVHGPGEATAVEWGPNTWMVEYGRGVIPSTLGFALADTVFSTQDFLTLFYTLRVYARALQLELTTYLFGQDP
T2 sequence (P07550 whole entry): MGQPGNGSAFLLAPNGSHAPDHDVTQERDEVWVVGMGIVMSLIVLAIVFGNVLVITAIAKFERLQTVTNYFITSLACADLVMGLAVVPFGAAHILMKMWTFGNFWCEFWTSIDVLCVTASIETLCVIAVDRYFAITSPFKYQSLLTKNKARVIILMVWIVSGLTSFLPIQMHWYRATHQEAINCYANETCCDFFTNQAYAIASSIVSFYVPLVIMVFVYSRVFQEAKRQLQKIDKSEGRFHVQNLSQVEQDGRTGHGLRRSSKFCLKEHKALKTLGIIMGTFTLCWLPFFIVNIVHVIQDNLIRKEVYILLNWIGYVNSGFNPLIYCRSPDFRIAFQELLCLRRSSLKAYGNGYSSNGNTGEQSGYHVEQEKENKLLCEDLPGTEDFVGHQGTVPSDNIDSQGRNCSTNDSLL
T10 sequence (P08173 whole entry): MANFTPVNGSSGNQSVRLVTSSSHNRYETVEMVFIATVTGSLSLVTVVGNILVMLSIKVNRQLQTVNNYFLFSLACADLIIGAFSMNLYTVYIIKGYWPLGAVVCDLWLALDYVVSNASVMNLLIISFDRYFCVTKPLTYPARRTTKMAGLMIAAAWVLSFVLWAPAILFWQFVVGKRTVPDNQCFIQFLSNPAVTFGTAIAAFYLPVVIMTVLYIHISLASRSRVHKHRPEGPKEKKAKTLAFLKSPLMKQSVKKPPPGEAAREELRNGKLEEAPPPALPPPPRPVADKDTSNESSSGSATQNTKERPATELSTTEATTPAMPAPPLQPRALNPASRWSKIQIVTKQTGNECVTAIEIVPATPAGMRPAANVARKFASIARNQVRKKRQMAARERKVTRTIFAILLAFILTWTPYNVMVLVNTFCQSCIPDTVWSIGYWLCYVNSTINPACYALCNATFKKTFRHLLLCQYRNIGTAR
Sequence of dopamine D1 (P21728 whole entry): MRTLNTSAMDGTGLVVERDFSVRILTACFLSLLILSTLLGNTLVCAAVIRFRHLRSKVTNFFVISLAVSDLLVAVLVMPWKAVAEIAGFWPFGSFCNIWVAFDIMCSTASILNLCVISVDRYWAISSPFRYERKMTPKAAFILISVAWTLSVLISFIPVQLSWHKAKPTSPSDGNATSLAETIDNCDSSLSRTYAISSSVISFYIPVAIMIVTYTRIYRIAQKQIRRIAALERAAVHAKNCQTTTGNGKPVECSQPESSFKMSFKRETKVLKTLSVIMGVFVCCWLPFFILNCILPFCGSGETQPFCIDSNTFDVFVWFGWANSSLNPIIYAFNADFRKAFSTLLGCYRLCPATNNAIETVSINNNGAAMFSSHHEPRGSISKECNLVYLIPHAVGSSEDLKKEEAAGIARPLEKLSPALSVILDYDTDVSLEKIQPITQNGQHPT
Sequence of serotonin 5-HT2A (P28223 whole entry): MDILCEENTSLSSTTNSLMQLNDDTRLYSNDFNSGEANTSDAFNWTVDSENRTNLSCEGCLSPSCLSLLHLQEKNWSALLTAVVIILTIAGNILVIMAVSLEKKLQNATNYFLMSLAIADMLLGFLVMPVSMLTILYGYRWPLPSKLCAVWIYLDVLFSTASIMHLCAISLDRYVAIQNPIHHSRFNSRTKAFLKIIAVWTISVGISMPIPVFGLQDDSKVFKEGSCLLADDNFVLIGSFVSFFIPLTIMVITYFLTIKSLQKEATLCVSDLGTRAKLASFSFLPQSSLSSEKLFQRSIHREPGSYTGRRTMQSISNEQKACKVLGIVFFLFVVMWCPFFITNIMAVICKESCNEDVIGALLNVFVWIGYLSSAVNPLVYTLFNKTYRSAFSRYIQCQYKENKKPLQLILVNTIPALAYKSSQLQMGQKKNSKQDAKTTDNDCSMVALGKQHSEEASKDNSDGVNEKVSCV
T11 sequence (P08172 whole entry): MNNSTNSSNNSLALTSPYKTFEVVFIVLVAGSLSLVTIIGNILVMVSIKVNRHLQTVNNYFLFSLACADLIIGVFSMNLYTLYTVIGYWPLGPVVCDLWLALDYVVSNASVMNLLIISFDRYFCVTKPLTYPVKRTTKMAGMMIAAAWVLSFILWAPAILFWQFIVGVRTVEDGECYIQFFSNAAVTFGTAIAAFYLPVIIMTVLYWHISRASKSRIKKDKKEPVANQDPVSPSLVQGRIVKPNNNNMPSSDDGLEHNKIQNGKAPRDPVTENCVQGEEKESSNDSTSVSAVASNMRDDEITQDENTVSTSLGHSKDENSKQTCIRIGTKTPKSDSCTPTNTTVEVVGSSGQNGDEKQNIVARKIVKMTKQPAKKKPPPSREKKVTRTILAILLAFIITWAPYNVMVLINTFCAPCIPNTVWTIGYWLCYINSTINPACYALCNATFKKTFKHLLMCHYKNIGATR
T9 sequence (P31645 whole entry): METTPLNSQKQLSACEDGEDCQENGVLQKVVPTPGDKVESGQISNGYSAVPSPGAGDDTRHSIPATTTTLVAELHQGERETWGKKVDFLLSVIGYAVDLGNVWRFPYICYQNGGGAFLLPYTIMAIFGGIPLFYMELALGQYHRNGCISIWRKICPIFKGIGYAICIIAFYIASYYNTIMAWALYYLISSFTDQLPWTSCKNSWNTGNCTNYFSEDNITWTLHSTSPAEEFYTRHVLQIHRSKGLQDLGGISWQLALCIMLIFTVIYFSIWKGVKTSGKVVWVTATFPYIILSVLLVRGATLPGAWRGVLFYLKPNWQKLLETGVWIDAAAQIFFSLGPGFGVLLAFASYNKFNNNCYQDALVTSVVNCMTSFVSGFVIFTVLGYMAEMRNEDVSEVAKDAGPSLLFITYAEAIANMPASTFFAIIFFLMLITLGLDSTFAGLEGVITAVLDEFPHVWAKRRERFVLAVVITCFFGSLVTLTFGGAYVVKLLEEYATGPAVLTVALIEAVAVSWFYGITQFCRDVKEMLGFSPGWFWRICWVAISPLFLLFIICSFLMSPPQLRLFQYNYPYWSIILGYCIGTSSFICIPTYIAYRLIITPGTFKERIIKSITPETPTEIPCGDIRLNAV
T3 sequence (P50406 whole entry): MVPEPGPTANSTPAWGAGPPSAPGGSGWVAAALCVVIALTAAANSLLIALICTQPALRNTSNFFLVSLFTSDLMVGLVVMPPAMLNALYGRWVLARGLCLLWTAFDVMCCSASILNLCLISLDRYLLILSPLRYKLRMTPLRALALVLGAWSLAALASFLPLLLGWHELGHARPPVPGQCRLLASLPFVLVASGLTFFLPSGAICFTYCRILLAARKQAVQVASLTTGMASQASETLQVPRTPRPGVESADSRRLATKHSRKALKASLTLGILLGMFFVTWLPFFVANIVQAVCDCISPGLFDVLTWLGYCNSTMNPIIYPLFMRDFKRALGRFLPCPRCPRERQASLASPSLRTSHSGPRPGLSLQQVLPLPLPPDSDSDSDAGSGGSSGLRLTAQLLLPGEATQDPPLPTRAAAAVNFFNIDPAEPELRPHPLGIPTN
T8 sequence (Q5BJF2 whole entry): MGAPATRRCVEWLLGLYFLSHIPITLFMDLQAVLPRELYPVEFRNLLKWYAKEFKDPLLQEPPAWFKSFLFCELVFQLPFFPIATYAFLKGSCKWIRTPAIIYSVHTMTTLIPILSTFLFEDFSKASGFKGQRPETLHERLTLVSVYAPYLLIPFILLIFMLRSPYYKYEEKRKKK
T7 sequence (P08913 whole entry): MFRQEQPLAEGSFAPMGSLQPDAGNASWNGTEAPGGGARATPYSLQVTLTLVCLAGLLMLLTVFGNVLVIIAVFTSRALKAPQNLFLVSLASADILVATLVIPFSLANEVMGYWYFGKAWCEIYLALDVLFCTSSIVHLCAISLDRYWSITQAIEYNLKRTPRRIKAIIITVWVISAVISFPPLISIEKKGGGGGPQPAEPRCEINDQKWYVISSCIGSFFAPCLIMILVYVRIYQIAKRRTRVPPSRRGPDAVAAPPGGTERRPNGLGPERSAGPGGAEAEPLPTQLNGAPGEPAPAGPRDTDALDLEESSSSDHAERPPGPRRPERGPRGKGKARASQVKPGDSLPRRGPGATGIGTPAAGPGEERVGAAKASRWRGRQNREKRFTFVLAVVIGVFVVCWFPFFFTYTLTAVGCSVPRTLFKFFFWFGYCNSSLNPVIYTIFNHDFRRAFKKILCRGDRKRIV
T12 sequence (Q99720 whole entry): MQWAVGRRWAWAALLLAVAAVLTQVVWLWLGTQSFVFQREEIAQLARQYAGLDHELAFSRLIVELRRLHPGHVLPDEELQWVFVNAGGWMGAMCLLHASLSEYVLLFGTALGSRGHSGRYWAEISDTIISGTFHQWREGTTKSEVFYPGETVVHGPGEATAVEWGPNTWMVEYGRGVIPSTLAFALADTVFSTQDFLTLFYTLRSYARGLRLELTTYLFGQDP
Sequence of dopamine D2 (P14416 whole entry): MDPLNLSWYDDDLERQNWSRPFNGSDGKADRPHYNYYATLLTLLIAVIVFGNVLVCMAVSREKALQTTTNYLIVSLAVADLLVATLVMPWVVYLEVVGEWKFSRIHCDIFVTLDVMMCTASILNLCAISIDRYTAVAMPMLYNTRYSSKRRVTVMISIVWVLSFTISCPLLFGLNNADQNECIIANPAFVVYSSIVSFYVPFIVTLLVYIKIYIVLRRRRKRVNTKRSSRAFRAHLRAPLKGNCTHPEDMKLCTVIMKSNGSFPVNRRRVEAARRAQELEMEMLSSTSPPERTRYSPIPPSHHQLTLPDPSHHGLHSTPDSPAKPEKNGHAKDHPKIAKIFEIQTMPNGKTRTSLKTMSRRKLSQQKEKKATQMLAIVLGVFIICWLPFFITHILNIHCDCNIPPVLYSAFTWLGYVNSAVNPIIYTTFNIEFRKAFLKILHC

Compound: CCN(CCCNC(=O)c1ccc(-c2ccncc2)cc1)CCNC(=O)c1cc(I)cc(OC)c1OC [HY-3-24, N-(2-(Ethyl(3-(4-(pyridin-4-yl)benzamido)propyl)amino)ethyl)-5-iodo-2,3-dimethoxybenzamide]
- binding to sigma-1 receptors (sigma-1): did not bind
- binding to sigma-1 receptors (sigma-1; listed as HY-2-34): low affinity
- pKi (adrenergic beta2): 5.23
- pKi (serotonin 5-HT6): 5.98
- pKi (serotonin 5-HT2A): 6.51
- pKi (opioid KOR): 5.81
- pKi (adrenergic alpha2C): 5.72
- pKi (adrenergic alpha2B): 5.97
- pKi (adrenergic alpha2A): 5.67
- pKi (sigma2): 5.64
- pKi (serotonin transporter): 6.17
- pKi (Muscarinic M4): 6.26
- pKi (dopamine D2): 7.37
- Ki D1 (dopamine D1): N.A. (not active, less than 50% inhibition in primary binding assays at 10 µM)
- pKi (serotonin 5-HT3): 6.04
- pKi (dopamine D4): 5.73
- pKi (serotonin 5-HT1D): 5.77
- pKi (serotonin 5-HT2C): 6.21
- pKi (Muscarinic M2): 6.08
- pKi (sigma1): 5.71
